# What was measured:
# Experiment in all cases: viability relative to DMSO control (fraction); higher = less drug effect (more viable cells)
# Conditions in all cases: 48 h
# Duvelisib = compound: C[C@H](Nc1ncnc2nc[nH]c12)c1cc2cccc(Cl)c2c(=O)n1-c1ccccc1 [Duvelisib]
# Outline: (§1)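 Primary mononuclear tumour cells (Ficoll-isolated from blood or bone marrow, or processed lymph node; fresh or cryopreserved) were plated at 4 × 10^4 cells per well in 384-well plates with pre-plated compounds at five concentrations, one well each. Medium was RPMI-1640 with penicillin/streptomycin, L-glutamine and human serum, at 37 °C and 5% CO2 for 48 h. Viability was read as CellTiter-Glo luminescence relative to the median of 16 inner DMSO wells.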
# Bendamustine = compound: Cn1c(CCCC(=O)O)nc2cc(N(CCCl)CCCl)ccc21 [Bendamustine]
# Outline: as §1
# [1] = compound: C[C@H](NC(=O)CCC(F)(F)F)C(=O)N[C@@H]1C(=O)N(CCO)c2ncccc2-c2ccccc21
# Outline: as §1
# Everolimus = compound: CO[C@H]1C[C@@H]2CC[C@@H](C)[C@@](O)(O2)C(=O)C(=O)N2CCCC[C@H]2C(=O)O[C@H]([C@H](C)C[C@@H]2CC[C@@H](OCCO)[C@H](OC)C2)CC(=O)[C@H](C)/C=C(\C)[C@@H](O)[C@@H](OC)C(=O)[C@H](C)C[C@H](C)/C=C/C=C/C=C/1C [Everolimus]
# Outline: as §1
# [2] = compound: O=C(NO)c1cccc(C(=O)NCCc2ccccc2)c1
# Outline: as §1
# Idasanutlin (RS7388) = compound: COc1cc(C(=O)O)ccc1NC(=O)[C@@H]1N[C@@H](CC(C)(C)C)[C@](C#N)(c2ccc(Cl)cc2F)[C@H]1c1cccc(Cl)c1F [Idasanutlin (RS7388)]
# Outline: as §1
# Filgotinib = compound: O=C(Nc1nc2cccc(-c3ccc(CN4CCS(=O)(=O)CC4)cc3)n2n1)C1CC1 [Filgotinib]
# Outline: as §1
# Vindesine = compound: CC[C@]1(O)C[C@@H]2CN(CCc3c([nH]c4ccccc34)[C@@](C(=O)OC)(c3cc4c(cc3OC)N(C)[C@H]3[C@@](O)(C(N)=O)[C@H](O)[C@]5(CC)C=CCN6CC[C@]43[C@@H]65)C2)C1 [Vindesine]
# Outline: as §1
# Midostaurin hydrate = compound: CO[C@@H]1[C@H](N(C)C(=O)c2ccccc2)C[C@H]2O[C@]1(C)n1c3ccccc3c3c4c(c5c6ccccc6n2c5c31)C(=O)NC4 [Midostaurin hydrate]
# Outline: as §1
# Selinexor = compound: O=C(/C=C\n1cnc(-c2cc(C(F)(F)F)cc(C(F)(F)F)c2)n1)NNc1cnccn1 [Selinexor]
# Outline: as §1
# [3] = compound: CCc1ccc(/C=C2/SC(=S)NC2=O)cc1
# Outline: as §1
# Venetoclax = compound: CC1(C)CCC(CN2CCN(c3ccc(C(=O)NS(=O)(=O)c4ccc(NCC5CCOCC5)c([N+](=O)[O-])c4)c(Oc4cnc5[nH]ccc5c4)c3)CC2)=C(c2ccc(Cl)cc2)C1 [Venetoclax]
# Outline: as §1
# Navitoclax = compound: CC1(C)CCC(c2ccc(Cl)cc2)=C(CN2CCN(c3ccc(C(=O)NS(=O)(=O)c4ccc(N[C@H](CCN5CCOCC5)CSc5ccccc5)c(S(=O)(=O)C(F)(F)F)c4)cc3)CC2)C1 [Navitoclax]
# Outline: as §1
test system,measurement,setting,value
primary DLBCL patient cells (S082),viability,Duvelisib; 0.0016 µM,0.758
same,viability,Duvelisib; 0.008 µM,0.689
same,viability,Duvelisib; 0.04 µM,0.679
same,viability,Duvelisib; 0.2 µM,0.65
same,viability,Duvelisib; 1 µM,0.619
same,viability,Bendamustine; 0.032 µM,1.04
same,viability,Bendamustine; 0.16 µM,1.09
same,viability,Bendamustine; 0.8 µM,1.07
same,viability,Bendamustine; 4 µM,1.04
same,viability,Bendamustine; 20 µM,0.962
same,viability,[1]; 0.016 µM,1.1
same,viability,[1]; 0.08 µM,1.12
same,viability,[1]; 0.4 µM,1.08
same,viability,[1]; 2 µM,1.19
same,viability,[1]; 10 µM,1.16
same,viability,Everolimus; 0.0032 µM,0.892
same,viability,Everolimus; 0.016 µM,0.816
same,viability,Everolimus; 0.08 µM,0.841
same,viability,Everolimus; 0.4 µM,0.782
same,viability,Everolimus; 2 µM,0.807
same,viability,[2]; 0.024 µM,0.969
same,viability,[2]; 0.12 µM,0.932
same,viability,[2]; 0.6 µM,0.951
same,viability,[2]; 3 µM,0.899
same,viability,[2]; 15 µM,0.867
same,viability,Idasanutlin (RS7388); 0.032 µM,0.954
same,viability,Idasanutlin (RS7388); 0.16 µM,1.08
same,viability,Idasanutlin (RS7388); 0.8 µM,1.09
same,viability,Idasanutlin (RS7388); 4 µM,0.924
same,viability,Idasanutlin (RS7388); 20 µM,1.13
same,viability,Filgotinib; 0.024 µM,0.971
same,viability,Filgotinib; 0.12 µM,0.976
same,viability,Filgotinib; 0.6 µM,1.03
same,viability,Filgotinib; 3 µM,0.933
same,viability,Filgotinib; 15 µM,0.758
same,viability,Vindesine; 0.016 µM,0.728
same,viability,Vindesine; 0.08 µM,0.56
same,viability,Vindesine; 0.4 µM,0.532
same,viability,Vindesine; 2 µM,0.421
same,viability,Vindesine; 10 µM,0.366
same,viability,Midostaurin hydrate; 0.024 µM,1.03
same,viability,Midostaurin hydrate; 0.12 µM,0.986
same,viability,Midostaurin hydrate; 0.6 µM,0.999
same,viability,Midostaurin hydrate; 3 µM,0.814
same,viability,Midostaurin hydrate; 15 µM,0.224
same,viability,Selinexor; 0.008 µM,0.931
same,viability,Selinexor; 0.04 µM,0.971
same,viability,Selinexor; 0.2 µM,1.03
same,viability,Selinexor; 1 µM,0.939
same,viability,Selinexor; 5 µM,0.917
same,viability,[3]; 0.024 µM,0.764
same,viability,[3]; 0.12 µM,0.807
same,viability,[3]; 0.6 µM,0.905
same,viability,[3]; 3 µM,0.871
same,viability,[3]; 15 µM,0.821
same,viability,Venetoclax; 0.00064 µM,1.01
same,viability,Venetoclax; 0.0032 µM,0.876
same,viability,Venetoclax; 0.016 µM,0.547
same,viability,Venetoclax; 0.08 µM,0.143
same,viability,Venetoclax; 0.4 µM,0.0409
same,viability,Navitoclax; 0.0032 µM,1.03
same,viability,Navitoclax; 0.016 µM,1
same,viability,Navitoclax; 0.08 µM,0.772
same,viability,Navitoclax; 0.4 µM,0.286
same,viability,Navitoclax; 2 µM,0.0483
primary FL patient cells (S022),viability,Duvelisib; 0.0016 µM,0.949
same,viability,Duvelisib; 0.008 µM,0.933
same,viability,Duvelisib; 0.04 µM,0.988
same,viability,Duvelisib; 0.2 µM,0.82
same,viability,Duvelisib; 1 µM,0.873
same,viability,Bendamustine; 0.032 µM,1.13
same,viability,Bendamustine; 0.16 µM,1.1
same,viability,Bendamustine; 0.8 µM,1.19
same,viability,Bendamustine; 4 µM,1.14
same,viability,Bendamustine; 20 µM,0.888
same,viability,[1]; 0.016 µM,1.18
same,viability,[1]; 0.08 µM,1.06
same,viability,[1]; 0.4 µM,0.968
same,viability,[1]; 2 µM,0.963
same,viability,[1]; 10 µM,0.961
same,viability,Everolimus; 0.0032 µM,0.943
same,viability,Everolimus; 0.016 µM,0.933
same,viability,Everolimus; 0.08 µM,0.911
same,viability,Everolimus; 0.4 µM,0.882
same,viability,Everolimus; 2 µM,0.966
same,viability,[2]; 0.024 µM,1.07
same,viability,[2]; 0.12 µM,0.992
same,viability,[2]; 0.6 µM,1.07
same,viability,[2]; 3 µM,0.961
same,viability,[2]; 15 µM,0.984
same,viability,Idasanutlin (RS7388); 0.032 µM,0.837
same,viability,Idasanutlin (RS7388); 0.16 µM,0.831
same,viability,Idasanutlin (RS7388); 0.8 µM,0.772
same,viability,Idasanutlin (RS7388); 4 µM,0.608
same,viability,Idasanutlin (RS7388); 20 µM,0.579
same,viability,Filgotinib; 0.024 µM,0.984
same,viability,Filgotinib; 0.12 µM,0.944
same,viability,Filgotinib; 0.6 µM,1.01
same,viability,Filgotinib; 3 µM,0.91
same,viability,Filgotinib; 15 µM,0.568
same,viability,Vindesine; 0.016 µM,0.568
same,viability,Vindesine; 0.08 µM,0.451
same,viability,Vindesine; 0.4 µM,0.373
same,viability,Vindesine; 2 µM,0.348
same,viability,Vindesine; 10 µM,0.214
same,viability,Midostaurin hydrate; 0.024 µM,1.05
same,viability,Midostaurin hydrate; 0.12 µM,1.01
same,viability,Midostaurin hydrate; 0.6 µM,1.11
same,viability,Midostaurin hydrate; 3 µM,1.03
same,viability,Midostaurin hydrate; 15 µM,0.774
same,viability,Selinexor; 0.008 µM,0.987
same,viability,Selinexor; 0.04 µM,0.861
same,viability,Selinexor; 0.2 µM,0.779
same,viability,Selinexor; 1 µM,0.383
same,viability,Selinexor; 5 µM,0.333
same,viability,[3]; 0.024 µM,0.83
same,viability,[3]; 0.12 µM,0.883
same,viability,[3]; 0.6 µM,0.901
same,viability,[3]; 3 µM,0.829
same,viability,[3]; 15 µM,0.842
same,viability,Venetoclax; 0.00064 µM,1.01
same,viability,Venetoclax; 0.0032 µM,0.894
same,viability,Venetoclax; 0.016 µM,0.67
same,viability,Venetoclax; 0.08 µM,0.313
same,viability,Venetoclax; 0.4 µM,0.066
same,viability,Navitoclax; 0.0032 µM,1.05
same,viability,Navitoclax; 0.016 µM,1.02
same,viability,Navitoclax; 0.08 µM,0.724
same,viability,Navitoclax; 0.4 µM,0.329
same,viability,Navitoclax; 2 µM,0.0687
primary FL patient cells (S087),viability,Duvelisib; 0.0016 µM,0.849
same,viability,Duvelisib; 0.008 µM,0.811
same,viability,Duvelisib; 0.04 µM,0.764
same,viability,Duvelisib; 0.2 µM,0.758
same,viability,Duvelisib; 1 µM,0.795
same,viability,Bendamustine; 0.032 µM,1.01
same,viability,Bendamustine; 0.16 µM,1
same,viability,Bendamustine; 0.8 µM,0.984
same,viability,Bendamustine; 4 µM,0.99
same,viability,Bendamustine; 20 µM,0.786
same,viability,[1]; 0.016 µM,1.02
same,viability,[1]; 0.08 µM,1.02
same,viability,[1]; 0.4 µM,1.05
same,viability,[1]; 2 µM,1.03
same,viability,[1]; 10 µM,0.98
same,viability,Everolimus; 0.0032 µM,0.882
same,viability,Everolimus; 0.016 µM,0.851
same,viability,Everolimus; 0.08 µM,0.859
same,viability,Everolimus; 0.4 µM,0.846
same,viability,Everolimus; 2 µM,0.867
same,viability,[2]; 0.024 µM,1.02
same,viability,[2]; 0.12 µM,0.957
same,viability,[2]; 0.6 µM,1.08
same,viability,[2]; 3 µM,1.04
same,viability,[2]; 15 µM,0.912
same,viability,Idasanutlin (RS7388); 0.032 µM,0.834
same,viability,Idasanutlin (RS7388); 0.16 µM,0.877
same,viability,Idasanutlin (RS7388); 0.8 µM,0.803
same,viability,Idasanutlin (RS7388); 4 µM,0.694
same,viability,Idasanutlin (RS7388); 20 µM,0.671
same,viability,Filgotinib; 0.024 µM,1.04
same,viability,Filgotinib; 0.12 µM,0.977
same,viability,Filgotinib; 0.6 µM,1
same,viability,Filgotinib; 3 µM,0.916
same,viability,Filgotinib; 15 µM,0.737
same,viability,Vindesine; 0.016 µM,0.87
same,viability,Vindesine; 0.08 µM,0.836
same,viability,Vindesine; 0.4 µM,0.728
same,viability,Vindesine; 2 µM,0.737
same,viability,Vindesine; 10 µM,0.637
same,viability,Midostaurin hydrate; 0.024 µM,0.997
same,viability,Midostaurin hydrate; 0.12 µM,1.01
same,viability,Midostaurin hydrate; 0.6 µM,1.04
same,viability,Midostaurin hydrate; 3 µM,0.928
same,viability,Midostaurin hydrate; 15 µM,0.795
same,viability,Selinexor; 0.008 µM,0.903
same,viability,Selinexor; 0.04 µM,0.872
same,viability,Selinexor; 0.2 µM,0.724
same,viability,Selinexor; 1 µM,0.681
same,viability,Selinexor; 5 µM,0.685
same,viability,[3]; 0.024 µM,0.862
same,viability,[3]; 0.12 µM,0.862
same,viability,[3]; 0.6 µM,0.99
same,viability,[3]; 3 µM,0.923
same,viability,[3]; 15 µM,0.943
same,viability,Venetoclax; 0.00064 µM,1.01
same,viability,Venetoclax; 0.0032 µM,0.938
same,viability,Venetoclax; 0.016 µM,0.74
same,viability,Venetoclax; 0.08 µM,0.364
same,viability,Venetoclax; 0.4 µM,0.0932
same,viability,Navitoclax; 0.0032 µM,0.95
same,viability,Navitoclax; 0.016 µM,1.01
same,viability,Navitoclax; 0.08 µM,0.82
same,viability,Navitoclax; 0.4 µM,0.508
same,viability,Navitoclax; 2 µM,0.084
